Source: patent US10294202B2, “Pyrrolidinones as herbicides” (FMC Corporation, priority 2013, dated 2019)

Columns and labels:
crabgrass, large = assay: Test A pre-/postemergence herbicide test; type: in vivo, Digitaria sanguinalis
Summary of the method: (§1)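 Planted in loam–sand blend; treated the same day preemergence by directed soil spray, while separately grown plants at one- to two-leaf stage got postemergence spray. Compared visually with untreated controls after approximately 10 days; 100 means complete control.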

barnyardgrass [1] = assay: Test C flooded paddy test; type: in vivo, Echinochloa crus-galli; conditions: Flood
Description: (§2) Plant species in the flooded paddy test consisted of rice (Oryza sativa), sedge, umbrella (small-flower umbrella sedge, Cyperus difformis), ducksalad (Heteranthera limosa), and barnyardgrass (Echinochloa crus-galli) grown to the 2-leaf stage for testing. At time of treatment, test pots were flooded to 3 cm above the soil surface, treated by application of test compounds directly to the paddy water, and then maintained at that water depth for the duration of the test. Treated plants and controls were maintained in a greenhouse for 13 to 15 days, after which time all species were compared to controls and visually evaluated. Plant response ratings, summarized in Table C, are based on a scale of 0 to 100 where 0 is no effect and 100 is complete control. A dash (-) response means no test result.

pigweed = assay: Test A pre-/postemergence herbicide test; type: in vivo, Amaranthus retroflexus
Summary of the method: as §1

sedge, umbrella = assay: Test C flooded paddy test; type: in vivo, Cyperus difformis; conditions: Flood
Summary of the method: (§3)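 2-leaf stage; flood 3 cm over soil; compound into paddy water; depth held; greenhouse 13–15 d; visual % control vs untreated (0 = none, 100 = complete); "-" = not tested.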

rice = assay: Test C flooded paddy test; type: in vivo, Oryza sativa; conditions: Flood
Description: as §2

ducksalad = assay: Test C flooded paddy test; type: in vivo, Heteranthera limosa; conditions: Flood
Summary of the method: as §3

corn = assay: Test A pre-/postemergence herbicide test; type: in vivo, Zea mays
Summary of the method: as §1

barnyardgrass [2] = assay: Test A pre-/postemergence herbicide test; type: in vivo, Echinochloa crus-galli
Summary of the method: as §1

giant foxtail = assay: Test A pre-/postemergence herbicide test; type: in vivo, Setaria faberii
Summary of the method: as §1

morningglory = assay: Test A pre-/postemergence herbicide test; type: in vivo, Ipomoea spp.
Summary of the method: as §1

wheat = assay: Test A pre-/postemergence herbicide test; type: in vivo, Triticum aestivum
Summary of the method: as §1

velvetleaf = assay: Test A pre-/postemergence herbicide test; type: in vivo, Abutilon theophrasti
Summary of the method: as §1

[3] = Postemergence, 1000 g ai/ha, 0 to 100 scale (0 no effect, 100 complete control)
[4] = Preemergence, 1000 g ai/ha, visual rating on 0 to 100 scale (0 no effect, 100 complete control), approx. 10 days
[5] = 31 g ai/ha, scale of 0 to 100 where 0 is no effect and 100 is complete control, 13 to 15 days
[6] = 62 g ai/ha, scale of 0 to 100 where 0 is no effect and 100 is complete control, 13 to 15 days
[7] = 125 g ai/ha, scale of 0 to 100 where 0 is no effect and 100 is complete control, 13 to 15 days
[8] = Postemergence, 125 g ai/ha, 0 to 100 scale, 0 no effect, 100 complete control
[9] = Postemergence, 500 g ai/ha, 0 to 100 scale (0 no effect, 100 complete control)
[10] = Preemergence, 125 g ai/ha, visual rating on 0 to 100 scale (0 no effect, 100 complete control)
[11] = preemergence, 500 g ai/ha, 0 to 100 scale

Cc1ccccc1NC(=O)C1C(=O)NCC1c1ccc(F)c(F)c1 (racemic) [Compound 19]
0: Plant response rating, Barnyardgrass (barnyardgrass [1]; [5]) | Plant response rating, Barnyardgrass (barnyardgrass [1]; [6]) | Plant response rating, Barnyardgrass (barnyardgrass [1]; [7]) | Plant response rating, Barnyardgrass (barnyardgrass [1]; 250 g ai/ha, scale 0 to 100) | Plant response rating, Pigweed (pigweed; [3]) | Plant response rating, Pigweed (pigweed; [4]) | Plant response rating, Sedge, Umbrella (sedge, umbrella; [5]) | Plant response rating, Sedge, Umbrella (sedge, umbrella; [6]) | Plant response rating, Sedge, Umbrella (sedge, umbrella; [7]) | Plant response rating, Sedge, Umbrella (sedge, umbrella; 250 g ai/ha, scale 0 to 100) | Plant response rating, Rice (rice; [5]) | Plant response rating, Rice (rice; [6]) | Plant response rating, Rice (rice; [7]) | Plant response rating, Rice (rice; 250 g ai/ha, scale 0 to 100) | Plant response rating, Ducksalad (ducksalad; [5]) | Plant response rating, Ducksalad (ducksalad; [6]) | Plant response rating, Ducksalad (ducksalad; [7]) | Plant response rating, Ducksalad (ducksalad; 250 g ai/ha, scale 0 to 100) | Plant response rating, Corn (corn; [3]) | Plant response rating, Corn (corn; [4]) | Plant response rating, Morningglory (morningglory; [3]) | Plant response rating, Morningglory (morningglory; [4]) | Plant response rating, Wheat (wheat; [4]) | Plant response rating, Velvetleaf (velvetleaf; [4])
90: Plant response rating, Crabgrass, Large (crabgrass, large; [3]) | Plant response rating, Crabgrass, Large (crabgrass, large; [4]) | Plant response rating, Barnyardgrass (barnyardgrass [2]; [3]) | Plant response rating, Barnyardgrass (barnyardgrass [2]; [4]) | Plant response rating, Foxtail, Giant (giant foxtail; [4])
30: Plant response rating, Wheat (wheat; [3])
10: Plant response rating, Velvetleaf (velvetleaf; [3])
80: Plant response rating, Foxtail, Giant (giant foxtail; [3])

O=C1NCC(c2ccsc2)C1C(=O)Nc1ccccc1F (racemic) [Compound 29]
50: Plant response rating, Barnyardgrass (barnyardgrass [2]; preemergence, 500 g ai/ha, 0 to 100 scale (0 no effect, 100 complete control))
30: Crabgrass, Large plant response rating (crabgrass, large; [10])
40: Plant response rating, Ducksalad (ducksalad; 250 g ai/ha, scale 0 to 100)
70: Plant response rating, Crabgrass, Large (crabgrass, large; [11])
0: Plant response rating, Crabgrass, Large (crabgrass, large; [8]) | Plant response rating, Crabgrass, Large (crabgrass, large; [9]) | Plant response rating, Barnyardgrass (barnyardgrass [1]; [5]) | Plant response rating, Barnyardgrass (barnyardgrass [1]; [6]) | Plant response rating, Barnyardgrass (barnyardgrass [1]; [7]) | Plant response rating, Barnyardgrass (barnyardgrass [1]; 250 g ai/ha, scale 0 to 100) | Plant response rating, Pigweed (pigweed; [8]) | Plant response rating, Pigweed (pigweed; [9]) | Pigweed plant response rating (pigweed; [10]) | Plant response rating, Pigweed (pigweed; [11]) | Plant response rating, Sedge, Umbrella (sedge, umbrella; [5]) | Plant response rating, Sedge, Umbrella (sedge, umbrella; [6]) | Plant response rating, Sedge, Umbrella (sedge, umbrella; [7]) | Plant response rating, Sedge, Umbrella (sedge, umbrella; 250 g ai/ha, scale 0 to 100) | Plant response rating, Rice (rice; [5]) | Plant response rating, Rice (rice; [6]) | Plant response rating, Rice (rice; [7]) | Plant response rating, Rice (rice; 250 g ai/ha, scale 0 to 100) | Plant response rating, Ducksalad (ducksalad; [5]) | Plant response rating, Ducksalad (ducksalad; [6]) | Plant response rating, Ducksalad (ducksalad; [7]) | Plant response rating, Corn (corn; [8]) | Plant response rating, Corn (corn; [9]) | Corn plant response rating (corn; [10]) | Plant response rating, Corn (corn; [11]) | Plant response rating, Barnyardgrass (barnyardgrass [2]; [8]) | Plant response rating, Barnyardgrass (barnyardgrass [2]; [9]) | Barnyardgrass plant response rating (barnyardgrass [2]; [10]) | Plant response rating, Foxtail, Giant (giant foxtail; [8]) | Plant response rating, Foxtail, Giant (giant foxtail; [9]) | Foxtail, Giant plant response rating (giant foxtail; [10]) | Plant response rating, Foxtail, Giant (giant foxtail; [11]) | Plant response rating, Morningglory (morningglory; [8]) | Plant response rating, Morningglory (morningglory; [9]) | Morningglory plant response rating (morningglory; [10]) | Plant response rating, Morningglory (morningglory; [11]) | Plant response rating, Wheat (wheat; [8]) | Plant response rating, Wheat (wheat; [9]) | Wheat plant response rating (wheat; [10]) | Plant response rating, Wheat (wheat; [11]) | Plant response rating, Velvetleaf (velvetleaf; [8]) | Plant response rating, Velvetleaf (velvetleaf; [9]) | Velvetleaf plant response rating (velvetleaf; [10]) | Plant response rating, Velvetleaf (velvetleaf; [11])
